Where “and” joins values, the source holds several entries; their conditions need not be identical. Identical values can stand only once. Inconclusive results and toxic doses are left out. The calls were made as follows: active = survival T/C of 150% or more; inactive = T/C below 125% in these data.
Tested on: CD2F1 mice, L1210 leukemia ip, survival T/C
Experiment: NCI In Vivo Anticancer Drug Screen. Data for tumor model L1210 Leukemia (intraperitoneal) in CD2F1 (CDF1) mice
Settings: higher = longer survival
Procedure, shortened: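 Mice carrying a transplanted tumor received test compound or vehicle alone. The value is the measurement in the treated group divided by that in the vehicle-treated control group.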

[1] = endpoint: mean survival time, dose: 100.0 mg/kg/injection, schedule: Q01DX009 (ip), vehicle: saline with Tween-80
[2] = endpoint: mean survival time, dose: 100.0 mg/kg/injection, schedule: Q04DX003 (ip), vehicle: saline with Tween-80
[3] = endpoint: mean survival time, dose: 200.0 mg/kg/injection, schedule: Q01DX009 (ip), vehicle: saline with Tween-80
[4] = endpoint: mean survival time, dose: 200.0 mg/kg/injection, schedule: Q04DX003 (ip), vehicle: saline with Tween-80
[5] = endpoint: mean survival time, dose: 400.0 mg/kg/injection, schedule: Q01DX009 (ip), vehicle: saline with Tween-80
[6] = endpoint: mean survival time, dose: 400.0 mg/kg/injection, schedule: Q04DX003 (ip), vehicle: saline with Tween-80
[7] = endpoint: mean survival time, dose: 100.0 mg/kg/injection, schedule: Q04DX003 (ip), vehicle: saline
[8] = endpoint: mean survival time, dose: 200.0 mg/kg/injection, schedule: Q04DX003 (ip), vehicle: saline
[9] = endpoint: mean survival time, dose: 400.0 mg/kg/injection, schedule: Q04DX003 (ip), vehicle: saline

Measured: T/C

CC(CC(O)(c1ccccc1)c1ccccc1)C(F)(F)F (configuration not stated)
inactive: [1] 100 % of control | [2] 94 % of control | [3] 95 % of control | [4] 96 % of control | [5] 98 % of control | [6] 97 % of control

CCOC(=O)C(Br)C(Br)c1cccc([N+](=O)[O-])c1 (configuration not stated)
inactive: endpoint: mean survival time, dose: 25.0 mg/kg/injection, schedule: Q01DX009 (ip), vehicle: other 98 % of control | endpoint: mean survival time, dose: 50.0 mg/kg/injection, schedule: Q01DX009 (ip), vehicle: other 98 % of control | endpoint: mean survival time, dose: 100.0 mg/kg/injection, schedule: Q01DX009 (ip), vehicle: other 101 % of control

O=C1O/C(=C\c2ccccc2)C(O)=C1c1ccccc1
inactive: endpoint: mean survival time, dose: 25.0 mg/kg/injection, schedule: Q01DX001 (ip), vehicle: saline with Tween-80 102 % of control | endpoint: mean survival time, dose: 50.0 mg/kg/injection, schedule: Q01DX001 (ip), vehicle: saline with Tween-80 98 % of control | endpoint: mean survival time, dose: 100.0 mg/kg/injection, schedule: Q01DX001 (ip), vehicle: saline with Tween-80 102 % of control

C=C(C)COc1c(C)cc(C)cc1[N+](=O)[O-]
inactive: [1] 98 % of control | [3] 100 % of control | [5] 104 % of control

CC(C)(C)COC(=O)Nc1cccc(O)c1
inactive: [2] 96 % of control | [4] 95 % of control | [6] 102 % of control

NCCS/C=C(\Br)C(=O)OCc1ccc(Br)cc1
inactive: [2] 96 % of control | [4] 98 % of control

Cc1cc(C)c(/C(O)=C/C(=S)N2CCOCC2)c(C)c1
inactive: [2] 98 % of control | [4] 98 % of control | [6] 98 % of control

Cn1/c2cc/c1=C(\c1ccc(S(=O)(=O)O)cc1)c1ccc([n-]1)/C(c1ccc(S(=O)(=O)O)cc1)=c1/cc/c([nH]1)=C(\c1ccc(S(=O)(=O)O)cc1)c1ccc([n-]1)/C=2c1ccc(S(=O)(=O)O)cc1.O.O=S(=O)(O)C(F)(F)F.[Cu+2]
inactive: endpoint: median survival time, dose: 6.25 mg/kg/injection, schedule: Q01DX009 (ip), vehicle: saline 101 % of control | endpoint: median survival time, dose: 12.5 mg/kg/injection, schedule: Q01DX009 (ip), vehicle: saline 104 % of control | endpoint: median survival time, dose: 25.0 mg/kg/injection, schedule: Q01DX009 (ip), vehicle: saline 103 % of control | endpoint: median survival time, dose: 50.0 mg/kg/injection, schedule: Q01DX009 (ip), vehicle: saline 112 % of control | endpoint: median survival time, dose: 100.0 mg/kg/injection, schedule: Q01DX009 (ip), vehicle: saline 103 % of control

CN(C)C(=O)Nc1cccc(OP(=O)(N(C)C)N(C)C)c1
inactive: [2] 103 % of control | [4] 97 % of control | [6] 99 % of control

CCCC(=O)c1c(C)cc(C)cc1C
inactive: endpoint: mean survival time, dose: 100.0 mg/kg/injection, schedule: Q04DX003 (ip), vehicle: other 98 % of control | endpoint: mean survival time, dose: 200.0 mg/kg/injection, schedule: Q04DX003 (ip), vehicle: other 104 % of control | endpoint: mean survival time, dose: 400.0 mg/kg/injection, schedule: Q04DX003 (ip), vehicle: other 98 % of control

CC1(C)N=C(N)N=C(N)N1c1cccc(CCCCc2ccc(S(=O)(=O)F)cc2Cl)c1
inactive: endpoint: mean survival time, dose: 12.5 mg/kg/injection, schedule: Q01DX009 (ip), vehicle: saline sonified 87 % of control | endpoint: mean survival time, dose: 12.5 mg/kg/injection, schedule: Q04DX003 (ip), vehicle: saline sonified 96 % of control | endpoint: mean survival time, dose: 25.0 mg/kg/injection, schedule: Q01DX009 (ip), vehicle: saline sonified 89 % of control | endpoint: mean survival time, dose: 25.0 mg/kg/injection, schedule: Q04DX003 (ip), vehicle: saline sonified 96 % of control | endpoint: mean survival time, dose: 50.0 mg/kg/injection, schedule: Q04DX003 (ip), vehicle: saline sonified 92 % of control

S=P(Cc1ccccc1)(c1ccccc1)c1ccccc1
inactive: endpoint: mean survival time, dose: 50.0 mg/kg/injection, schedule: Q01DX009 (ip), vehicle: saline with Tween-80 89 % of control | [1] 90 % of control | [2] 88 % of control | [4] 86 % of control

NCCc1c[nH]c2ccccc12
inactive: [1] 93 % of control | [3] 95 % of control | [5] 98 % of control

Cc1cccc(=N)n1CCC(=O)O
inactive: endpoint: mean survival time, dose: 100.0 mg/kg/injection, schedule: Q01DX009 (ip), vehicle: saline 95 % of control | [7] 112 % of control | endpoint: mean survival time, dose: 200.0 mg/kg/injection, schedule: Q01DX009 (ip), vehicle: saline 98 % of control | [8] 94 % of control | endpoint: mean survival time, dose: 400.0 mg/kg/injection, schedule: Q01DX009 (ip), vehicle: saline 95 % of control | [9] 96 % of control

CCc1ccc(C(=O)CCC(=O)O)cc1
inactive: endpoint: mean survival time, dose: 100.0 mg/kg/injection, schedule: Q04DX002 (ip), vehicle: saline with Tween-80 98 % of control | endpoint: mean survival time, dose: 200.0 mg/kg/injection, schedule: Q04DX002 (ip), vehicle: saline with Tween-80 95 % of control | endpoint: mean survival time, dose: 400.0 mg/kg/injection, schedule: Q04DX002 (ip), vehicle: saline with Tween-80 102 % of control

O=C1CCSc2ccccc21
inactive: endpoint: mean survival time, dose: 75.0 mg/kg/injection, schedule: Q01DX009 (ip), vehicle: saline with Tween-80 95 % of control | [2] 104 % of control | [7] 100 % of control | endpoint: mean survival time, dose: 150.0 mg/kg/injection, schedule: Q01DX009 (ip), vehicle: saline with Tween-80 102 % of control | [4] 101 % of control | [8] 100 % of control | endpoint: mean survival time, dose: 300.0 mg/kg/injection, schedule: Q01DX009 (ip), vehicle: saline with Tween-80 96 % of control | [6] 102 % of control | [9] 100 % of control

CC1OC(OC2C(OC3CCC4(C)C(CCC5(C)C4CC=C4C6CC(C)(C)CCC6(CO)C(O)CC45C)C3(C)C)OC(CO)C(OC3OC(COC4OC(CO)C(O)C(O)C4O)C(O)C(O)C3O)C2O)C(O)C(O)C1O (configuration not stated)
inactive: endpoint: mean survival time, dose: 50.0 mg/kg/injection, schedule: Q01DX001 (sc), vehicle: steriod suspending solution 103 % of control

CCCNC1=C(C)C(=O)C2=C(C1=O)[C@@H](COC(N)=O)[C@]1(O)[C@H]3[C@@H](CN21)N3C (some centres not stated)
inactive: endpoint: mean survival time, dose: 1.5 mg/kg/injection, schedule: Q01DX001 (ip), vehicle: water 98 % of control and 103 % of control | endpoint: mean survival time, dose: 3.0 mg/kg/injection, schedule: Q01DX001 (ip), vehicle: water 97 % of control and 103 % of control | endpoint: mean survival time, dose: 6.0 mg/kg/injection, schedule: Q01DX001 (ip), vehicle: water 98 % of control and 101 % of control | endpoint: mean survival time, dose: 12.0 mg/kg/injection, schedule: Q01DX001 (ip), vehicle: water 98 % of control and 103 % of control | endpoint: mean survival time, dose: 24.0 mg/kg/injection, schedule: Q01DX001 (ip), vehicle: water 97 % of control and 101 % of control | endpoint: mean survival time, dose: 50.0 mg/kg/injection, schedule: Q01DX001 (ip), vehicle: distilled water + Tween-80 100 % of control | endpoint: mean survival time, dose: 100.0 mg/kg/injection, schedule: Q01DX001 (ip), vehicle: distilled water + Tween-80 108 % of control
